The target of the test is TRKA (Homo sapiens (Human), UniProt P04629). Put plainly: Isolated TRK enzyme assay (HTRF KinEASE-TK), PV3144 TrkA enzyme assay. Format: biochemical. The note with it: arithmetic mean where more than one reading. On the procedure:
Isolated TRK Enzyme assays use the HTRF KinEASE-TK kit (Cisbio Cat#62TK0PEJ) with recombinant His-tagged cytoplasmic domains of each TRK receptor sourced from Invitrogen (see table below). This activity-assay measures the phosphorylation of tyrosine residues within a substrate from the HTRF kit which has been validated by Cisbio for a variety of tyrosine kinases including the TRK receptors.
0.5 mM stock solutions of test compounds are prepared and serially diluted in 100% DMSO. A standard curve using the compound of Example 135 disclosed in WO2005/116035 of 150 uM is also prepared on each test plate. High percentage effect (HPE) is defined by 150 uM (using the compound of Example 135 as disclosed in WO2005/116035) and 0% effect (ZPE) is defined by 100% DMSO. Greiner low volume black plates containing 0.2 ul of serially diluted compound, standard and HPE/ZPE are created using the Bravo nanoliter dispenser.
1× enzyme buffer is prepared from 5× Enzymatic Buffer from the Cisbio KinEASE TK kit using MilliQ water. The buffer is then supplemented with 10 mM MgCI and 2 mM DTT (both from Sigma). In the case of TRKB, the buffer is also supplemented with 125 nM Supplement Enzymatic Buffer (SEB) from the Cisbio kit.
2× FAC of enzyme and 2× FAC ATP diluted in 1× complete enzyme buffer is incubated at room temperature for 20 minutes to preactivate the enzyme. Following this preactivation step, 5 ul/well of enzyme+ATP mix is added using a Multidrop Micro to the assay plate, spotted with 0.2 ul 100% DMSO compound. This is left for 20 mins at room temperature before adding 5 ul of 2 uM TK-substrate-Biotin (from the Cisbio kit) diluted in 1× enzyme buffer (1 uM FAC) using the Multidrop Micro. The reaction is incubated at room temperature for the optimized assay reaction time (see table). The reaction is stopped by adding 10 ul/well HTRF Detection Buffer containing 0.25 uM Streptavidin-XL665 (0.125 uM FAC) and 1:200 TK Antibody-Cryptate using a Multidrop.
After the Detection Reagent addition, plates are covered and incubated at room temperature for 60 minutes. HTRF signal is read using an Envision reader, measured as a ratio of emissions at two different wavelengths, 620 nm and 665 nm. […] Test compound data are expressed as percentage inhibition defined by HPE and ZPE values for each plate. Percentage inhibition in the presence of test compound is plotted against compound concentration on a log scale to determine an IC50 from the resultant sigmoid curve.
Where more than one reading was taken, the arithmetic mean is presented.
On the technique in general: In TR-FRET formats the signal depends on donor and acceptor labels being close together.

pIC50: −log10 of the molar value.

Sequence of TRKA (P04629 441-796): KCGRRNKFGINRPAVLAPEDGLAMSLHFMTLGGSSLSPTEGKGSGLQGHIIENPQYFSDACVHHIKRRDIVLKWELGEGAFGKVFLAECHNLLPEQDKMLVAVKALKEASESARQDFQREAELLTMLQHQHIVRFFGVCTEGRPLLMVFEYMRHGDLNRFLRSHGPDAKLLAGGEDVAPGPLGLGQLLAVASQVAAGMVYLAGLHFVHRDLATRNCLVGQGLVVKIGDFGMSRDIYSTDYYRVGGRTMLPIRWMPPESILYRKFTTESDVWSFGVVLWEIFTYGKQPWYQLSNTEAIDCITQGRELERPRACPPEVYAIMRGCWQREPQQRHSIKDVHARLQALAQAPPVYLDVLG

The compound `CC(C)c1ccnn1CC(=O)Nc1cncc(C(=O)c2cn(C(C)C)c3ccncc23)c1` [Example 124, 2-(5-(propan-2-yl)-1H-pyrazol-1-yl]-N-(5-{[1-(propan-2-yl)-1H-pyrrolo[3,2-c]pyridin-3-yl]carbonyl}pyridin-3-yl)acetamide] had a negative logarithm of the IC50 (pIC50) of 6.70. The same measure for `O=C(Cc1ccc(C(F)(F)F)cc1)Nc1cc(C(=O)c2cn(CCO)c3ccncc23)ccn1` [Example 141, N-(4-{[1-(2-hydroxyethyl)-1H-pyrrolo[3,2-c]pyridin-3-yl]carbonyl}pyridin-2-yl)-2-[4-(trifluoromethyl)phenyl]acetamide]: 7.69; for `O=C(Cc1ccc(F)cc1F)Nc1cc(C(=O)c2cn(CCO)c3ccncc23)ccn1` [Example 145, 2-(2,4-difluorophenyl)-N-(4-{[1-(2-hydroxyethyl)-1H-pyrrolo[3,2-c]pyridin-3-yl]carbonyl}pyridin-2-yl)acetamide]: 6.52; for `CC(C)n1cc(C(=O)c2cncc(NC(=O)Cc3cccc(Cl)c3)c2)c2cnccc21` [Example 125, 2-(3-chlorophenyl)-N-(5-{[1-(propan-2-yl)-1H-pyrrolo[3,2-c]pyridin-3-yl]carbonyl}pyridin-3-yl)acetamide]: 6.15. The same measure for `CC(C)n1cc(C(=O)c2ccnc(NC(=O)Cc3cscn3)c2)c2cnccc21` [Example 181, N-(4-{[1-(propan-2-yl)-1H-pyrrolo[3,2-c]pyridin-3-yl]carbonyl}pyridin-2-yl)-2(1,3-thiazol-4-yl)acetamide]: 6.27; for `Cc1nc(CC(=O)Nc2cc(C(=O)c3cn(C(C)C)c4ccncc34)ccn2)cs1` [Example 161, 2-(2-methyl-1,3-thiazol-4-yl)-N-(4-{[1-(propan-2-yl)-1H-pyrrolo[3,2-c]pyridin-3-yl]carbonyl}pyridin-2-yl)acetamide]: 6.99. For the compound `CC(C)n1cc(C(=O)c2ccnc(NC(=O)Cn3cc(Cl)cn3)c2)c2cnccc21` [Example 99, 2-(4-chloro-1H-pyrazol-1-yl)-N-(4-{[1-(propan-2-yl)-1H-pyrrolo[3,2-c]pyridin-3-yl]carbonyl}pyridin-2-yl)acetamide], the pIC50 was 7.37. The same measure for `CC(C)c1ccnn1CC(=O)Nc1cc(C(=O)c2cn(CCO)c3ccncc23)ccn1` [Example 147, N-(4-{[1-(2-hydroxyethyl)-1H-pyrrolo[3,2-c]pyridin-3-yl]carbonyl}pyridin-2-yl)-2-[5-(propan-2-yl)-1H-pyrazol-1-yl]acetamide]: 5.37.

`CC(C)n1cc(C(=O)c2ccnc(NC(=O)Cc3ccc(C#N)cn3)c2)c2cnccc21` [Example 138, 2(5-cyanopyridin-2-yl)-N-(4-{[1-(propan-2-yl)-1H-pyrrolo[3,2-c]pyridin-3-yl]carbonyl}pyridin-2-yl)acetamide] had a pIC50 of 7.34.

In the case of `CC(C)n1cc(C(=O)c2ccnc(NC(=O)Cc3ccc(F)cn3)c2)c2cnccc21` [Example 81, 2-(5-fluoropyridin-2-yl)-N-(4-{[1-(propan-2-yl)-1H-pyrrolo[3,2-c]pyridin-3-yl]carbonyl}pyridin-2-yl)acetamide], the negative-log IC50 (pIC50) was 7.17. In the case of `COCc1nc(CC(=O)Nc2cncc(C(=O)c3cn(C(C)C)c4ccncc34)c2)c(C2CC2)o1` [Example 39, 2-[5-cyclopropyl-2-(methoxymethyl)-1,3-oxazol-4-yl]-N-(5-{[1-(propan-2-yl)-1H-pyrrolo[3,2-c]pyridin-3-yl]carbonyl}pyridin-3-yl)acetamide], the negative-log IC50 (pIC50) is 6.74. With `CC(C)n1cc(C(=O)c2cc(NC(=O)Cn3ccc(C(F)(F)F)n3)ccn2)c2cnccc21` [Example 27, N-(2-{[1-(propan-2-yl)-1H-pyrrolo[3,2-c]pyridin-3-yl]carbonyl}pyridin-4-yl)-2[3-(trifluoromethyl)-1H-pyrazol-1-yl]acetamide] the figure was 7.05; with `O=C(Cc1cccc(Cl)c1)Nc1cc(C(=O)c2cn(CCO)c3ccncc23)ccn1` [Example 149, 2-(3-chlorophenyl)-N-(4-{[1-(2-hydroxyethyl)-1H-pyrrolo[3,2-c]pyridin-3-yl]carbonyl}pyridin-2-yl)acetamide], 6.70.

In turn, `Cc1cc(C(F)(F)F)nn1CC(=O)Nc1cncc(C(=O)c2cn(C(C)CO)c3ccncc23)c1` (single isomer, unassigned) [Example 77, N-(5-{[1-(1-hydroxypropan-2-yl)-1H-pyrrolo[3,2-c]pyridin-3-yl]carbonyl}pyridin-3-yl)-2-[5-methyl-3-(trifluoromethyl)-1H-pyrazol-1-yl]acetamide] had a pIC50 of 7.47. With `Cc1cc(C(F)(F)F)nn1CC(=O)Nc1cc(C(=O)c2cn(CCO)c3ccncc23)ccn1` [Example 153, N-(4-{[1-(2-hydroxyethyl)-1H-pyrrolo[3,2-c]pyridin-3-yl]carbonyl}pyridin-2-yl)-2-[5-methyl-3-(trifluoromethyl)-1H-pyrazol-1-yl]acetamide] the figure was 7.08; with `Cc1nn(C)cc1CC(=O)Nc1ccnc(C(=O)c2cn(C(C)C)c3ccncc23)c1` [Example 58, 2-(1,3-dimethyl-1H-pyrazol-4-yl)-N-(2-{[1-(propan-2-yl)-1H-pyrrolo[3,2-c]pyridin-3-yl]carbonyl}pyridin-4-yl)acetamide], 5.19. With `CC(C)(CO)n1cc(C(=O)c2cncc(NC(=O)Cc3ccc(C(F)(F)F)cc3)c2)c2cncc(F)c21` [Example 7, N-{5-[7-Fluoro-1-(2-hydroxy-1,1-dimethyl-ethyl)-1H-pyrrolo[3,2-c]pyridine-3-carbonyl]-pyridin-3-yl}-2-(4-trifluoromethyl-phenyl)-acetamide] the figure was 8.18; with `CC(C)n1cc(C(=O)c2ccnc(NC(=O)Cc3cccc(OC(F)(F)F)c3)c2)c2cnccc21` [Example 191, N-(4-{[1-(propan-2-yl)-1H-pyrrolo[3,2-c]pyridin-3-yl]carbonyl}pyridin-2-yl)-2-[3-(trifluoromethoxy)phenyl]acetamide], 8.13; with `CC(C)n1cc(C(=O)c2cncc(NC(=O)Cc3cnccn3)c2)c2cnccc21` [Example 133, N-(5-{[1-(propan-2-yl)-1H-pyrrolo[3,2-c]pyridin-3-yl]carbonyl}pyridin-3-yl)-2-(pyrazin-2-yl)acetamide], 5.36.

Consider `O=C(Nc1cc(C(=O)c2cn(CCO)c3ccncc23)ccn1)c1cccc(OC(F)(F)F)c1` [Example 142, N-(4-{[1-(2-hydroxyethyl)-1H-pyrrolo[3,2-c]pyridin-3-yl]carbonyl}pyridin-2-yl)-3-(trifluoromethoxy)benzamide], for which the pIC50 was 7.52. The compound `CC(C)(CO)n1cc(C(=O)c2cncc(NC(=O)Cn3ccc(C(F)(F)F)n3)c2)c2cncc(F)c21` [Example 95, N-(5-{[7-fluoro-1-(1-hydroxy-2-methylpropan-2-yl)-1H-pyrrolo[3,2-c]pyridin-3-yl]carbonyl}pyridin-3-yl)-2-[3-(trifluoromethyl)-1H-pyrazol-1-yl]acetamide] had a pIC50 of 8.53. The compound `CC(C)n1cc(C(=O)c2cncc(NC(=O)Cn3ccc(C4CC4)n3)c2)c2cnccc21` [Example 26, 2-(3-cyclopropyl-1H-pyrazol-1-yl)-N-(5-{[1-(propan-2-yl)-1H-pyrrolo[3,2-c]pyridin-3-yl]carbonyl}pyridin-3-yl)acetamide] had a pIC50 of 6.97. As for `CC(C)n1cc(C(=O)c2ccnc(NC(=O)Cn3cc(C(F)(F)F)nn3)c2)c2cnccc21` [Example 163, N-(4-{[1-(propan-2-yl)-1H-pyrrolo[3,2-c]pyridin-3-yl]carbonyl}pyridin-2-yl)-2-[4-(trifluoromethyl)-1H-1,2,3-triazol-1-yl]acetamide], the pIC50 was 7.97. The same measure for `CC(C)c1cn(CC(=O)Nc2cc(C(=O)c3cn(CCO)c4ccncc34)ccn2)nn1` [Example 159, N-(4-{[1-(2-hydroxyethyl)-1H-pyrrolo[3,2-c]pyridin-3-yl]carbonyl}pyridin-2-yl)-2-[4-(propan-2-yl)-1H-1,2,3-triazol-1-yl]acetamide]: 6.57; for `CC(CO)n1cc(C(=O)c2cc(NC(=O)Cc3ccc(Cl)cn3)ccn2)c2cnccc21` (single isomer, unassigned) [Example 17, 2-(5-chloropyridin-2-yl)-N-(2-{[1-(1-hydroxypropan-2-yl)-1H-pyrrolo[3,2-c]pyridin-3-yl]carbonyl}pyridin-4-yl)acetamide]: 6.97; for `CC(C)(CO)n1cc(C(=O)c2cc(NC(=O)Cn3ccc(C4CC4)n3)ccn2)c2cnccc21` [Example 234, 2-(3-cyclopropyl-1H-pyrazol-1-yl)-N-(2-{[1-(1-hydroxy-2-methylpropan-2-yl)-1H-pyrrolo[3,2-c]pyridin-3-yl]carbonyl}pyridin-4-yl)acetamide]: 7.78.

In general, pIC50 refers to the IC50 on a negative log10 scale, so that one unit is a factor of ten. A lower pIC50 goes with a large IC50.
